Measured values: the supplement of paper PMC11208160

Assay: recombinant UMI read abundance after kanamycin selection (control-corrected) (log10(CPM+1)); higher = more efficient recombination; extreme values may be limits of the assay; sequences stand for … in AGTGCAGAGAAAATCGGCCAGTTTTCTCTGCCTGCAGTCCGCATGCCGTGGGACCCCTTGGGTTCTAACCTGTTGCCTAGATTTATGCAGCGGACTGCCTTTCTCCCAAAGTGATAAACCGG…AGGTTGGTTTCACT; site = the 11-nt donor
Method in brief: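 Reported values are log10(CPM+1) from a pooled Escherichia coli screen of donor and donor-binding-loop pairs for the IS621 bridge recombinase. Selection used IPTG (0.07 mM) plus kanamycin, against unselected plating, each in two replicates. Recombinant UMIs were amplified across the donor–target junction, sequenced, converted to CPM, averaged over replicates and scaled by control-derived factors.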
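Also: IS621 bridge recombinase in Escherichia coli cells against a fixed T5 target plasmid.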

First: CAAGCAGCATGGACCGGTTTTCCCGGTAATCCGTATTTGCA (site CAAGCAGCTTG)
Second: CAAGCAGCATGGACCGGTTTTCCCGGTAATCCGTATTTGGT (site CAAGCAGCTAA)
The “recombinant UMI read abundance (log10)” value of the first is higher: 2.81 for the first, 0.922 for the second.

Compared with “CAAGCAGCATGGACCGGTTTTCCCGGTAATCCGTATTTGGT (site CAAGCAGCTAC)”, “CAAGCAGCATGGACCGGTTTTCCCGGTAATCCGTATTTGGT (site CAAGCAGCTAG)” is lower in “recombinant UMI read abundance (log10)” value: 1.73 for the first, 1.5 for the second.

Compared with “CAAGCAGCATGGACCGGTTTTCCCGGTAATCCGTATTTGGT (site CAAGCAGCTAT)”, “CAAGCGACATGGACCGGTTTTCCCGGTAATCCGTATTTGTG (site CAAGCGACTCA)” is lower in “recombinant UMI read abundance (log10)” value: 1.85 for the first, 1.19 for the second.

First: CAAGCGACATGGACCGGTTTTCCCGGTAATCCGTATTTGTG (site CAAGCGCCTCA)
Second: CAAGCGACATGGACCGGTTTTCCCGGTAATCCGTATTTGTG (site CAAGCGGCTCA)
The “recombinant UMI read abundance (log10)” value of the first is lower: 0.00397 for the first, 1.2 for the second.

First: CAAGCGACATGGACCGGTTTTCCCGGTAATCCGTATTTGTG (site CAAGCGTCTCA)
Second: CAAGCTCCATGGACCGGTTTTCCCGGTAATCCGTATTTGTG (site CAAGCACCTCA)
The “recombinant UMI read abundance (log10)” value of the first is higher: 0.756 for the first, 0.0218 for the second.

“CAAGCTCCATGGACCGGTTTTCCCGGTAATCCGTATTTGTG (site CAAGCCCCTCA)” and “CAAGCTCCATGGACCGGTTTTCCCGGTAATCCGTATTTGTG (site CAAGCGCCTCA)” are within 0.2 log units of each other in “recombinant UMI read abundance (log10)” value: 0.0101 for the first, 0.0257 for the second.

Going from “CAAGCTCCATGGACCGGTTTTCCCGGTAATCCGTATTTGTG (site CAAGCTCCTCA)” to “CAAGGCCCATGGACCGGTTTTCCCGGTAATCCGTATTTGGC (site CAAGGCCCTGC)”, the “recombinant UMI read abundance (log10)” value rises from 0.0252 to 2.11.

Compared with “CAAGGTGCATGGACCGGTTTTCCCGGTAATCCGTATTTGTT (site CAAGGTGCTAA)”, “CAAGTAACATGGACCGGTTTTCCCGGTAATCCGTATTTGAC (site CAAGTAACTGT)” is higher in “recombinant UMI read abundance (log10)” value: 2.59 for the first, 3.09 for the second.

Going from “CAAGTAACATGGACCGGTTTTCCCGGTAATCCGTATTTGAC (site CTAGTATCTGT)” to “CAAGTATCATGGACCGGTTTTCCCGGTAATCCGTATTTGTC (site CAAGTATCTGA)”, the “recombinant UMI read abundance (log10)” value rises from 0.497 to 2.66.

Going from “CAAGTATCATGGACCGGTTTTCCCGGTAATCCGTATTTGTC (site CTAGTATCTGT)” to “CAAGTCACATGGACCGGTTTTCCCGGTAATCCGTATTTGGC (site CAAGTCACTAC)”, the “recombinant UMI read abundance (log10)” value rises from 0 to 0.739.

First: CAAGTCACATGGACCGGTTTTCCCGGTAATCCGTATTTGGC (site CAAGTCACTCC)
Second: CAAGTCACATGGACCGGTTTTCCCGGTAATCCGTATTTGGC (site CAAGTCACTGC)
The “recombinant UMI read abundance (log10)” value of the first is lower: 0.402 for the first, 2.99 for the second.

First: CAAGTCACATGGACCGGTTTTCCCGGTAATCCGTATTTGGC (site CAAGTCACTTC)
Second: CAAGTCTCATGGACCGGTTTTCCCGGTAATCCGTATTTGAC (site CAAGTCTCTGT)
The “recombinant UMI read abundance (log10)” value of the first is lower: 0.596 for the first, 3.08 for the second.

Compared with “CAAGTCTCATGGACCGGTTTTCCCGGTAATCCGTATTTGAC (site CTAGTATCTGT)”, “CAATCAACATGGACCGGTTTTCCCGGTAATCCGTATTTGTG (site CAATCAACTCA)” is higher in “recombinant UMI read abundance (log10)” value: 0.00697 for the first, 0.737 for the second.

Going from “CAATCCCCATGGACCGGTTTTCCCGGTAATCCGTATTTGCT (site CAATACCCTAG)” to “CAATCCCCATGGACCGGTTTTCCCGGTAATCCGTATTTGCT (site CAATCCCCTAG)”, the “recombinant UMI read abundance (log10)” value falls from 1.5 to 0.977.

First: CAATCCCCATGGACCGGTTTTCCCGGTAATCCGTATTTGCT (site CAATGCCCTAG)
Second: CAATCCCCATGGACCGGTTTTCCCGGTAATCCGTATTTGCT (site CAATTCCCTAG)
The “recombinant UMI read abundance (log10)” value of the first is lower: 0 for the first, 1.78 for the second.

“CAATCGCCATGGACCGGTTTTCCCGGTAATCCGTATTTGTG (site CAAACGCCTCA)” and “CAATCGCCATGGACCGGTTTTCCCGGTAATCCGTATTTGTG (site CAACCGCCTCA)” are within 0.2 log units of each other in “recombinant UMI read abundance (log10)” value: 0.0185 for the first, 0.0282 for the second.

Going from “CAATCGCCATGGACCGGTTTTCCCGGTAATCCGTATTTGTG (site CAAGCGCCTCA)” to “CAATCGCCATGGACCGGTTTTCCCGGTAATCCGTATTTGTG (site CAATCGCCTCA)”, the “recombinant UMI read abundance (log10)” value rises from 0.0173 to 0.22.

First: CAATCGTCATGGACCGGTTTTCCCGGTAATCCGTATTTGCT (site CAATCGTCTAG)
Second: CAATCGTCATGGACCGGTTTTCCCGGTAATCCGTATTTGCT (site CGATCATCTAG)
The “recombinant UMI read abundance (log10)” value of the first is higher: 2.84 for the first, 0 for the second.

Going from “CAATCTACATGGACCGGTTTTCCCGGTAATCCGTATTTGTC (site CAATCTACTGA)” to “CAATGGCCATGGACCGGTTTTCCCGGTAATCCGTATTTGCA (site AAATGGCCTTG)”, the “recombinant UMI read abundance (log10)” value falls from 2.28 to 0.

First: CAATGGCCATGGACCGGTTTTCCCGGTAATCCGTATTTGCA (site CAATGGCCTTG)
Second: CAATGGCCATGGACCGGTTTTCCCGGTAATCCGTATTTGCA (site GAATGGCCTTG)
The “recombinant UMI read abundance (log10)” value of the first is higher: 0.253 for the first, 0 for the second.

“CAATGGCCATGGACCGGTTTTCCCGGTAATCCGTATTTGCA (site TAATGGCCTTG)” and “CAATTACCATGGACCGGTTTTCCCGGTAATCCGTATTTGCT (site CAATTACCTAG)” are within 0.2 log units of each other in “recombinant UMI read abundance (log10)” value: 0.198 for the first, 0 for the second.

“CAATTACCATGGACCGGTTTTCCCGGTAATCCGTATTTGCT (site CAATTCCCTAG)” and “CAATTACCATGGACCGGTTTTCCCGGTAATCCGTATTTGCT (site CAATTGCCTAG)” are the same in “recombinant UMI read abundance (log10)” value: 0 for the first, 0 for the second.

Going from “CAATTACCATGGACCGGTTTTCCCGGTAATCCGTATTTGCT (site CAATTTCCTAG)” to “CAATTCCCATGGACCGGTTTTCCCGGTAATCCGTATTTGTT (site CAATTCCCTAA)”, the “recombinant UMI read abundance (log10)” value rises from 0 to 1.71.

Going from “CAATTCCCATGGACCGGTTTTCCCGGTAATCCGTATTTGTT (site CAATTCCCTAC)” to “CAATTCCCATGGACCGGTTTTCCCGGTAATCCGTATTTGTT (site CAATTCCCTAG)”, the “recombinant UMI read abundance (log10)” value rises from 0.942 to 1.41.

First: CAATTCCCATGGACCGGTTTTCCCGGTAATCCGTATTTGTT (site CAATTCCCTAT)
Second: CAATTGACATGGACCGGTTTTCCCGGTAATCCGTATTTGCG (site CAATTGACTCG)
The “recombinant UMI read abundance (log10)” value of the first is lower: 1.15 for the first, 2.58 for the second.

Compared with “CAATTGGCATGGACCGGTTTTCCCGGTAATCCGTATTTGGA (site CAATTGGCTTC)”, “CAATTGGCATGGACCGGTTTTCCCGGTAATCCGTATTTGGA (site CACTTGGCTTC)” is lower in “recombinant UMI read abundance (log10)” value: 0.902 for the first, 0.0126 for the second.

Going from “CAATTGGCATGGACCGGTTTTCCCGGTAATCCGTATTTGGA (site CAGTTGGCTTC)” to “CAATTGGCATGGACCGGTTTTCCCGGTAATCCGTATTTGGA (site CATTTGGCTTC)”, the “recombinant UMI read abundance (log10)” value falls from 0.585 to 0.313.

“CACACAACATGGACCGGTTTTCCCGGTAATCCGTATTTGAA (site CACACAACTTT)” and “CACACGGCATGGACCGGTTTTCCCGGTAATCCGTATTTGAG (site CACACGGCTCT)” are within 0.2 log units of each other in “recombinant UMI read abundance (log10)” value: 1.84 for the first, 1.83 for the second.

Going from “CACAGGGCATGGACCGGTTTTCCCGGTAATCCGTATTTGAG (site CACAGGGCTCT)” to “CACATATCATGGACCGGTTTTCCCGGTAATCCGTATTTGTC (site CACATATCTGA)”, the “recombinant UMI read abundance (log10)” value falls from 1.97 to 1.5.

“CACATATCATGGACCGGTTTTCCCGGTAATCCGTATTTGTC (site CCCATATCTGA)” and “CACATATCATGGACCGGTTTTCCCGGTAATCCGTATTTGTC (site CGCATATCTGA)” are within 0.2 log units of each other in “recombinant UMI read abundance (log10)” value: 0.724 for the first, 0.92 for the second.

First: CACATATCATGGACCGGTTTTCCCGGTAATCCGTATTTGTC (site CTCATATCTGA)
Second: CACATCCCATGGACCGGTTTTCCCGGTAATCCGTATTTGCA (site CACATCCCTTG)
The “recombinant UMI read abundance (log10)” value of the first is lower: 0 for the first, 2 for the second.

Compared with “CACCGTTCATGGACCGGTTTTCCCGGTAATCCGTATTTGTG (site CACCGTTCTCA)”, “CACCTGCCATGGACCGGTTTTCCCGGTAATCCGTATTTGAC (site CACCTGCCTGT)” is lower in “recombinant UMI read abundance (log10)” value: 1.9 for the first, 0 for the second.

First: CACGCCCCATGGACCGGTTTTCCCGGTAATCCGTATTTGTT (site CACGACCCTAA)
Second: CACGCCCCATGGACCGGTTTTCCCGGTAATCCGTATTTGTT (site CACGCCCCTAA)
The “recombinant UMI read abundance (log10)” value of the first is lower: 0.0224 for the first, 0.348 for the second.

“CACGCCCCATGGACCGGTTTTCCCGGTAATCCGTATTTGTT (site CACGGCCCTAA)” and “CACGCCCCATGGACCGGTTTTCCCGGTAATCCGTATTTGTT (site CACGTCCCTAA)” are within 0.2 log units of each other in “recombinant UMI read abundance (log10)” value: 0 for the first, 0.0223 for the second.

Going from “CACGCCTCATGGACCGGTTTTCCCGGTAATCCGTATTTGCC (site CACACCTCTGG)” to “CACGCCTCATGGACCGGTTTTCCCGGTAATCCGTATTTGCC (site CACCCCTCTGG)”, the “recombinant UMI read abundance (log10)” value falls from 2.73 to 1.65.

First: CACGCCTCATGGACCGGTTTTCCCGGTAATCCGTATTTGCC (site CACGCCTCTGG)
Second: CACGCCTCATGGACCGGTTTTCCCGGTAATCCGTATTTGCC (site CACTCCTCTGG)
The “recombinant UMI read abundance (log10)” value of the first is higher: 3.32 for the first, 2.11 for the second.

Compared with “CACGCGACATGGACCGGTTTTCCCGGTAATCCGTATTTGTA (site CACGCGACTTA)”, “CACGGCCCATGGACCGGTTTTCCCGGTAATCCGTATTTGAT (site CACGGCCCTAA)” is lower in “recombinant UMI read abundance (log10)” value: 2.4 for the first, 0.0181 for the second.

For “CACGGCCCATGGACCGGTTTTCCCGGTAATCCGTATTTGAT (site CACGGCCCTAC)”, the “recombinant UMI read abundance (log10)” value was 0.0396.
